The source of these data is US9688668B2, “Long chain base sphingosine kinase inhibitors” (UNIVERSITY OF VIRGINIA PATENT FOUNDATION, priority 2012, dated 2017).

In one data set the target is sphingosine kinases. The conditions noted are these: background statement; read-out: typical KI value; cited from earlier work.
The conditions of data set [1]: patients, 1-yr trial; cited from earlier work.
In the next data set the target is recombinant SphK2 (Mus musculus, UniProt Q9JIA7). The data set is described as follows: SphK2 scintillation proximity kinase assay. The format is biochemical. Conditions: Estimated Ki values at recombinant SphK2; read-out: SphK2 (estimated Ki range).
Chain of recombinant SphK2 (Q9JIA7 whole entry, looked up): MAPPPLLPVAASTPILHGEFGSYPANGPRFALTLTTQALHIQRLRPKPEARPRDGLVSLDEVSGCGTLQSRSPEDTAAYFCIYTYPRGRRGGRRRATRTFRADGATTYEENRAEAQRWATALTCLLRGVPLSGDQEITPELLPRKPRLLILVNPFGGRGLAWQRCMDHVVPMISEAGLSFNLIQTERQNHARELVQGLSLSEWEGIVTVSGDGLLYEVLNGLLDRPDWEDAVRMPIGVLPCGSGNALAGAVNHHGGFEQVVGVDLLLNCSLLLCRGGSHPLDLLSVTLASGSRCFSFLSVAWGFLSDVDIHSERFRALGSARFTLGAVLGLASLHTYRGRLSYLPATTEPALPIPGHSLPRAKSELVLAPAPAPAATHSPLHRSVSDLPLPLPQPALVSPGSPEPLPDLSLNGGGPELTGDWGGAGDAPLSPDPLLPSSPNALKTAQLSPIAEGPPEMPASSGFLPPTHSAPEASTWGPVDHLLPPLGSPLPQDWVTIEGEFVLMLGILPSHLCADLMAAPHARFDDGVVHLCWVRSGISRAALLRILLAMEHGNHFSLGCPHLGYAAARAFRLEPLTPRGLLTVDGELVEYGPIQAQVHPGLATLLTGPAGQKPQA
Another data set has as its target recombinant SphK1 (Homo sapiens (Human), UniProt Q9NYA1). The data set is described as follows: SphK1 scintillation proximity kinase assay. Conditions: read-out: SphK1 (estimated Ki range); Estimated Ki values at recombinant SphK1.

A value given as a limit tells only on which side of the number the result lay.

Chain of recombinant SphK1 (Q9NYA1 whole entry): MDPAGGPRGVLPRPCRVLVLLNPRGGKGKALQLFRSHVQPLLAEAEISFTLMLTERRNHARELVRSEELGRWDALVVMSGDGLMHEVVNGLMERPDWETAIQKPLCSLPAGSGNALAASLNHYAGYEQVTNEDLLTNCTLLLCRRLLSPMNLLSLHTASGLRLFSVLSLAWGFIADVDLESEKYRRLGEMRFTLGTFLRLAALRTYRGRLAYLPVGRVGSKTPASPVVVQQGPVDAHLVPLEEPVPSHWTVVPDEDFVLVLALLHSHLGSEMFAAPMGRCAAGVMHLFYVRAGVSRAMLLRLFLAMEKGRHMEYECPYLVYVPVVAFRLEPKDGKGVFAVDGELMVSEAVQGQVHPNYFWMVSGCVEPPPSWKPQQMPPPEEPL

On to `CCCCCCCCCCCCCCC[C@H](O)[C@@H](N)CO` (racemic) [DL-threo-dihydrosphingosine], for which the Ki at sphingosine kinases is below 10 µM.
With `CCCCCCCCc1ccc(CCC(N)(CO)CO)cc1` [fingolimod, 2-amino-2-[2-(4-octylphenyl)ethyl]propane 1,3-diol], in data set [1], the “hypertension (blood pressure rise)” value is 2-3 mmHg.
Turning to “(S)-2-((3-(3-nonylphenyl)-1,2,4- oxadiazol-5-yl)methyl)pyrrolidine-1- carboximidamide [Compound 75]”, the Ki at recombinant SphK2 and at recombinant SphK1 was above 10 µM each time.
